{"source": "paper PMC5100313", "about": "“A new tool for the chemical genetic investigation of the Plasmodium falciparum Pfnek-2 NIMA-related kinase” (Malaria Journal, 2016)", "target": "T1, Pfnek-2(V24C) (Plasmodium falciparum, UniProt C0H4G2, V24C)", "T1 construct": "gene PF3D7_0525900", "T1 sequence (C0H4G2 1-286 V24C)": "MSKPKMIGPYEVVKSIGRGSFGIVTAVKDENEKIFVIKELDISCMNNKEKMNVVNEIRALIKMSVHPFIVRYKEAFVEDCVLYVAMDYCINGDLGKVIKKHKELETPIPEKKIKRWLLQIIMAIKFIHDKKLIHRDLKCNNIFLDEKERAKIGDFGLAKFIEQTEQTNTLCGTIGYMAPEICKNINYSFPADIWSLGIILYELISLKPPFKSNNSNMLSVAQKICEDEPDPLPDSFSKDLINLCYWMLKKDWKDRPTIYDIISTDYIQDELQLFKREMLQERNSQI", "test": "in vitro […]-ATP kinase assay (MBP substrate), washout, intact-protein LC-MS (mass shift […] Da)", "assay_type": "biochemical", "data": [{"compound": "C#Cc1nc(Nc2ccc(S(N)(=O)=O)cc2)nc2[nH]cnc12", "note": "[NCL-00016066, 4-(6-ethynyl-9H-purin-2-ylamino) benzene sulfonamide]", "values": [{"measurement": "IC50", "result": 501, "unit": "nM"}]}]}
